Source: patent publication US20100168228A1, “NOVEL CHEMOTHERAPEUTIC AGENTS AGAINST INFLAMMATION AND CANCER” (RELIANCE LIFE SCIENCES PVT. LTD., priority 2006, published 2010)

Columns and labels:
[1] = test system: Cyclin D1; experiment: Cyclin D1 mRNA, semi-quantitative RT-PCR; assay type: cell-based, human; details: various concentrations
Method: FIG. 10: Effect of CAMVE on Cell Cycle distribution. A. 5×10^5 cells were treated with indicated concentrations of CAMVE as indicated and cell cycle analyses were performed using Flow Cytometry as described in the “Materials and Methods”. The percentage of cells in G1, S, and G2-M phase were calculated using Cell Quest analysis software and are represented within the histograms. The data shown here are from a representative experiment repeated three times with similar results. B. Expression of human Cyclin D1, was assayed by semi quantitative RT-PCR analysis with GAPDH as internal control. […]
Total RNA was isolated using the standard TRIzol method (Gibco BRL). Briefly, 3×10^6 cells were treated with different concentrations of the compounds as indicated in the legends to Figures and after harvesting the cell pellet was resuspended in 1 ml of TRIzol with repeated pipetting. The homogenized sample was incubated at RT for 5 min to permit complete dissociation of the nucleoprotein complexes. 200 μl of chloroform was added and the tubes were shaken vigorously for 15 sec by hand and then incubated at RT for 3 mins. The samples were then centrifuged at 10,000 RPM for 15 mins at 4° C. […]
Changes in gene expression were verified by semi-quantitative RT-PCR using GAPDH as an internal normalization standard. 1 μg of total RNA (quantified by spectrophotometer) was used to reverse transcribe into cDNA. […]

[2] = test system: NF-κB; experiment: NF-κB activation assay, U937; assay type: cell-based, human; details: U937, 15 μM 3 h, 0.1 nM TNF 30 min
Method: FIG. 4: Effect of CAMVE on NF-κB activation in different cell lines. A. HeLa, MCF-7, U937, were incubated at 37° C. for 3 h with 15 μM dose of CAMVE and then stimulated with 0.1 nM TNF for 30 min. After these treatments, nuclear extracts were prepared and assayed for NF-κB using BD Transfactor ELISA method. B. RAW 264.7 cells pretreated with indicated doses of CAMVE were stimulated with 100 ng/ml LPS for 30 min and assayed for NF-κB activation.
Cell pellet was resuspended in lysis buffer (10 mM HEPES, pH 7.9, 1.5 mM MgCl2, 10 mM KCl, 1 mM PMSF, 1 mMDTT, 0.5% NP 40, 0.1 mM EGTA and 0.1 mM EDTA) and allowed to swell on ice for 15 min, followed by centrifugation at 3300×g for 20 min. The cell pellet was resuspended in a volume of lysis buffer equal to the cell pellet volume. The cell suspension was slowly drawn down into a syringe and ejected the content in a single stroke. Disrupted cells were incubated for 15 min on ice, and the disrupted cell suspension was centrifuged at 10,000×g for 20 min at 4° C. […]
The assay was performed by using wells coated with oligonucleotides having the consensus DNA binding sites for the specific transcription factors. […] Bound transcription factor was detected by a specific Primary Antibody. […] After addition of the substrate, the Absorbance was recorded at 655 nm.

`COC(=O)c1ccc(OC(=O)/C=C/c2ccc(O)c(O)c2)c(OC)c1` [compound 1, Methyl 4-{[(2E)-3-(3,4-dihydroxyphenyl)prop-2-enoyl]oxy}-3-methoxybenzoate] was tested, and the “expression of cyclin D1 m-RNA” value [1] was “notably decreased” and the “TNF-induced NF-κB activation” value [2] was “blocks TNF-induced NF-κB activation”.
